Reference: article PMC9127186, “Molecular Basis Underlying Hepatobiliary and Renal Excretion of Phenolic Acids of Salvia miltiorrhiza Roots (Danshen)” (Frontiers in Pharmacology, 2022)

Tests used:
rat Oat3 = molecular target: T1, rat Oat3 (Rattus norvegicus, UniProt Q9R1U7); assay: Cellular transport assay, HEK-293 cells expressing rat Oat3; settings: for TransportTC/TransportMC ratio (net transport ratio): 10 min; for K m: rat renal basolateral uptake Oat3, 5 min incubation, concentrations in Table 1
T1 sequence (Q9R1U7 1-536): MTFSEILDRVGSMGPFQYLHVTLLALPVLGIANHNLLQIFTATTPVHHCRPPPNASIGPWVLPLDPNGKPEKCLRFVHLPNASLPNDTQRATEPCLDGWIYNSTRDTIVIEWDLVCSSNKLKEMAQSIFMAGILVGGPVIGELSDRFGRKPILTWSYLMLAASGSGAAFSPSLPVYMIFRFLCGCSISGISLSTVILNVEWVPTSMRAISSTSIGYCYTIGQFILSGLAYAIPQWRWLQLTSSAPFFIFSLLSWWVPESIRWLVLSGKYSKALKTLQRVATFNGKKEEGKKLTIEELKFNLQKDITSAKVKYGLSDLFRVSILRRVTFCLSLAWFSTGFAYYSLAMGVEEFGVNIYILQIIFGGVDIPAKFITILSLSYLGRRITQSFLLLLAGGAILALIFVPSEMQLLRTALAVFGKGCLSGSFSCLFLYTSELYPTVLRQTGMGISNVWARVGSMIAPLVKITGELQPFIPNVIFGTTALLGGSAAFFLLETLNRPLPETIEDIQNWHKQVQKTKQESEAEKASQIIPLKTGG
Protocol: (§1) Briefly, HEK-293 cells were grown, at 37°C and 5% CO2, in Dulbecco’s modified Eagle’s medium, which was fortified with 10% fetal bovine serum, 1% minimal essential medium nonessential amino acids, and 1% antibiotic-antimycotic solution. A day before transfection, cells were seeded onto 24-well poly-D-lysine-coated plates at a density of 2 × 10^5 cells per well. After incubation at 37°C and 5% CO2 for 24 h, the expression plasmid and the empty vector were introduced separately into the HEK293 cells with Lipofectamine 2000 transfection reagent (Invitrogen, Carlsbad, CA, United States), according to the manufacturer’s protocol to yield transporter-expressing cells and mock cells, respectively.
(§2) Transport studies were performed 48 h after the transfection. […] Differential uptake between the transfected cells and mock cells was defined as net transport ratio (TransportTC/TransportMC ratio), where TransportTC and TransportMC are the transport rates of a test Danshen compound into transfected and mock cells, respectively. […] The determination was performed under linear uptake conditions by incubation for 5 min. Table 1 summarizes the final concentrations of the test Danshen compounds for different transporters. All the incubation samples were analyzed by liquid chromatography/mass spectrometry.
(§3) GraFit software (version 5.0; Erithacus Software Ltd, Surrey, United Kingdom) was used to determine the K m and V max values by nonlinear regression analysis of initial transport rates as a function of substrate concentration.

rat Oat1 = molecular target: T2, rat Oat1 (Rattus norvegicus, UniProt O35956); assay: Cellular transport assay, HEK-293 cells expressing rat Oat1; settings: for TransportTC/TransportMC ratio (net transport ratio): 10 min; for K m: rat renal basolateral uptake Oat1, 5 min incubation, concentrations in Table 1
T2 sequence (O35956 1-551): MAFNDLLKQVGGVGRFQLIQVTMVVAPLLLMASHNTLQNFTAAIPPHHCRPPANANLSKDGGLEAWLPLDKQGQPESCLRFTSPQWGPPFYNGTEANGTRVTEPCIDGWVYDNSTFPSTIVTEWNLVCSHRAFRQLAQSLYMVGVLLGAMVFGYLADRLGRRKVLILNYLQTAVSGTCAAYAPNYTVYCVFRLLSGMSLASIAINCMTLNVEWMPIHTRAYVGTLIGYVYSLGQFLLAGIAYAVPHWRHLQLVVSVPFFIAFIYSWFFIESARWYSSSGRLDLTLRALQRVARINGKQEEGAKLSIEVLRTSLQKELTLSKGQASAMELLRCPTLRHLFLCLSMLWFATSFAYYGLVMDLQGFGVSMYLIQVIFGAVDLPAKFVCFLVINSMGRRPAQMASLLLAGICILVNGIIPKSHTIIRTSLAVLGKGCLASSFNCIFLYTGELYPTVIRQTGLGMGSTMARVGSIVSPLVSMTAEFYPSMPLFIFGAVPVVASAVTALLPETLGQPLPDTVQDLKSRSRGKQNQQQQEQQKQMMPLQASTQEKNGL
Protocol: as §1, §2, §3

human BCRP = molecular target: T3, human BCRP (Homo sapiens, UniProt Q9UNQ0); assay: Vesicular transport assay, inside-out membrane vesicles expressing human BCRP; settings: 10 min
T3 sequence (Q9UNQ0 1-655): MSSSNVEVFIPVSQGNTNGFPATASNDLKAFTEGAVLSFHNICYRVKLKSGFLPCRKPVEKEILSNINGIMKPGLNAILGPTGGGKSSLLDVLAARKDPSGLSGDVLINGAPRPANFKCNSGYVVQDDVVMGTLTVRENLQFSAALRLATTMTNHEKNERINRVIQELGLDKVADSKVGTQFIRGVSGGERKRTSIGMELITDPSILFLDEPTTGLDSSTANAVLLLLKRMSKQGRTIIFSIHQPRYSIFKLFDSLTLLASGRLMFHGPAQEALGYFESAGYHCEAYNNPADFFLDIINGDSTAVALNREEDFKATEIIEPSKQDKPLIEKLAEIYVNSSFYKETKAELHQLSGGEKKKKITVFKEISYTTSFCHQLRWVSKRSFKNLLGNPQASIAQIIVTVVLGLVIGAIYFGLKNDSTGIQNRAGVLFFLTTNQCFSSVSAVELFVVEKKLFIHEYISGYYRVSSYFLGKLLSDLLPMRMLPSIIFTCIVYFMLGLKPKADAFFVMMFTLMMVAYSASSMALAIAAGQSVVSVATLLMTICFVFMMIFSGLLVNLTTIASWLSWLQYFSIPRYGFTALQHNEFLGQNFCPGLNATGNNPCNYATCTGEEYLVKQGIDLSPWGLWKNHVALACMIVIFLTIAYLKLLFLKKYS
Protocol: Inside-out membrane vesicles (5 mg protein/mL), prepared from insect cells expressing human multidrug resistance-associated protein (MRP) 2, MRP3, MRP4, breast cancer resistance protein (BCRP), bile salt export pump (BSEP), and multidrug resistance protein (MDR) one and rat Mrp2, Mrp4, Bcrp, and Bsep, and vesicles (5 mg protein/mL; prepared from the insect cells expressing no ABC transporter; serving as negative control) were obtained from Genomembrane (Kanazawa, Japan).
The test Danshen compounds at 100 µM final concentration were separately incubated with the membrane vesicles for 10 min. Buffer C (50 mM MOPS-tris, 70 mM KCl, 7.5 mM MgCl2, pH 7.0) was used for preincubation and incubation, while buffer D (40 mM MOPS-tris, 70 mM KCl, pH 7.0) was used for vesicle washing. The transport rate (pmol/mg protein/min) of the test Danshen compound was calculated using Equation (2): Transport=(CV×VV)/T/WV (2) where C V, V V, T, and W V represent concentration of the compound in vesicular lysates supernatant (μM), volume of the lysates (μL), incubation time (10 min), and amount of vesicle protein amount per well (0.05 mg), respectively. Differential transport of the test Danshen compound between ATP-containing vesicles and AMP-containing vesicles was defined as net transport ratio (TransportATP/TransportAMP ratio). […] All the incubation samples were analyzed by liquid chromatography/mass spectrometry.

[1] = Danshen phenolic acid at 100 μM final concentration, rat Oat3-transfected vs mock cells
[2] = Danshen phenolic acid at 100 μM final concentration, rat Oat1-transfected vs mock cells
[3] = Danshen phenolic acid at 100 μM final concentration, human BCRP vesicles

| Molecule | TransportTC/TransportMC ratio (net transport ratio) (rat Oat3; [1]) | TransportTC/TransportMC ratio (net transport ratio) (rat Oat1; [2]) | TransportATP/TransportAMP ratio (net transport ratio) (human BCRP; [3]) | microsomal CLint (rat Oat3; rat) [µL/min/mg] | K m (rat Oat3) | microsomal CLint (rat Oat1; rat) [µL/min/mg] | K m (rat Oat1) [µM] | substrate of rat Oat3 (rat Oat3) | TransportTC/TransportMC ratio (net transport ratio) (rat Oat3; rat, 100 μM) | microsomal CLint (rat Oat3; rat, other cell line) [µL/min/mg] | substrate of rat Oat1 (rat Oat1) | TransportTC/TransportMC ratio (net transport ratio) (rat Oat1; rat, 100 μM) | microsomal CLint (rat Oat1; rat, other cell line) [µL/min/mg] | TransportATP/TransportAMP ratio (net transport ratio) (human BCRP; human, not told, 100 μM, pH 7) |
| --- | --- | --- | --- | --- | --- | --- | --- | --- | --- | --- | --- | --- | --- | --- |
| O=C(/C=C/c1ccc(O)c2c1[C@H](C(=O)O)[C@@H](c1ccc(O)c(O)c1)O2)O[C@H](Cc1ccc(O)c(O)c1)C(=O)O [Lithospermic acid, lithospermic acid] | 0.94 ± 0.23 | 1.36 ± 0.35 | 1.12 ± 0.31 |  |  |  |  |  |  |  |  |  |  |  |
| O=C(O)c1ccc(O)c(O)c1 [Protocatechuic acid, protocatechuic acid] | 16.1 ± 2.8 | 104 ± 20 | 1.04 ± 0.19 | 0.57 | 117 ± 27 µM | 4.07 | 110 ± 19 |  |  |  |  |  |  |  |
| O=C(/C=C/c1ccc(O)c(O)c1)O[C@H](Cc1ccc(O)c(O)c1)C(=O)O [Rosmarinic acid, rosmarinic acid] |  |  |  |  | 24.0 ± 4.2 µM |  | 59.2 ± 4.7 | substrates | 4.45 ± 1.12 | 0.15 | substrates | 150 ± 46 | 3.47 | 1.12 ± 0.55 |
| O=C(/C=C/c1ccc(O)c(O)c1/C=C/c1ccc(O)c(O)c1)O[C@H](Cc1ccc(O)c(O)c1)C(=O)O [Salvianolic acid A, salvianolic acid A] |  |  |  |  |  |  |  | not substrates | 1.09 ± 0.35 |  | not substrates | 1.13 ± 0.64 |  | 1.12 ± 0.35 |
| O=C(O)Cc1c(/C=C/C(=O)O[C@H](Cc2ccc(O)c(O)c2)C(=O)O)ccc(O)c1O [Salvianolic acid D, salvianolic acid D] | 1.41 ± 0.36 | 11.5 ± 2.9 | 2.22 ± 0.61 |  |  | 4.72 | 24.4 ± 3.3 | not of rat Oat3 |  |  |  |  |  |  |
| O=C(O)C(O)Cc1ccc(O)c(O)c1 (stereo not shown) [Tanshinol, tanshinol] |  |  |  |  | 3,760 ± 907 μM |  | 154 ± 13 |  |  | 0.07 |  |  | 4.13 |  |
| salvianolic acid B | 1.12 ± 0.41 | 1.56 ± 0.67 | 1.54 ± 0.78 |  |  |  |  |  |  |  |  |  |  |  |
